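Method: 48-hour compound exposure of cells in 96-well plates, five concentrations, linear interpolation of endpoints. The concentration for 50% growth inhibition is given as GI50.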 Active and inactive are the calls of the source. Rule as the data show it: active = GI50 up to about 1.1 µM and inactive = higher.
What was measured:
Experiment in all cases: NCI-60 cell line screen, 48 h
[1] = tested on: A549
[2] = tested on: ACHN
[3] = tested on: BT-549
[4] = tested on: CCRF-CEM
[5] = tested on: COLO 205
[6] = tested on: HCT-116
[7] = tested on: HOP-92
[8] = tested on: KM12
[9] = tested on: MCF7
[10] = tested on: NCI-H226
[11] = tested on: NCI-H522
[12] = tested on: OVCAR-8
[13] = tested on: PC-3
[14] = tested on: SF-539
[15] = tested on: SK-OV-3
[16] = tested on: SNB-19
[17] = tested on: SNB-75
[18] = tested on: SW-620
[19] = tested on: U-251
[20] = tested on: UACC-62

Compound	GI50 [1]	GI50 [2]	GI50 [3]	GI50 [4]	GI50 [5]	GI50 [6]	GI50 [7]	GI50 [8]	GI50 [9]	GI50 [10]	GI50 [11]	GI50 [12]	GI50 [13]	GI50 [14]	GI50 [15]	GI50 [16]	GI50 [17]	GI50 [18]	GI50 [19]	GI50 [20]
C=C1CC(C)(COc2ccc3c(C)cc(=O)oc3c2)OC1=O (stereo not given)	8.79 µM (inactive)	2.08 µM (inactive)	2.31 µM (inactive)	0.229 µM (active)	0.951 µM (active)	0.778 µM (active)	1.09 µM (active)	3.66 µM (inactive)	0.706 µM (active)	8.69 µM (inactive)	0.276 µM (active)	3.17 µM (inactive)	2.39 µM (inactive)	0.951 µM (active)	3.73 µM (inactive)	13.7 µM (inactive)	5.42 µM (inactive)	0.431 µM (active)	10.9 µM (inactive)	1.69 µM (inactive)
CN1C(=O)C(O)CC1c1cccc(C(F)(F)F)c1 (stereo not given)	> 100 µM (inactive)	> 100 µM (inactive)	> 100 µM (inactive)	> 100 µM (inactive)	> 100 µM (inactive)	> 100 µM (inactive)	> 100 µM (inactive)	> 100 µM (inactive)	> 100 µM (inactive)	> 100 µM (inactive)	> 100 µM (inactive)	> 100 µM (inactive)	> 100 µM (inactive)	> 100 µM (inactive)	> 100 µM (inactive)	> 100 µM (inactive)	> 100 µM (inactive)	> 100 µM (inactive)	> 100 µM (inactive)	> 100 µM (inactive)
CCCCC1=C(C(=O)N2CCOCC2)C2(OCCO2)C1=O	18 µM (inactive)	17.4 µM (inactive)	23 µM (inactive)	32.2 µM (inactive)	17.7 µM (inactive)	18.5 µM (inactive)	23.1 µM (inactive)	20.4 µM (inactive)	44.6 µM (inactive)	2.86 µM (inactive)	15.7 µM (inactive)	23.2 µM (inactive)	31.8 µM (inactive)	23 µM (inactive)	62.4 µM (inactive)	14 µM (inactive)	43.5 µM (inactive)	27.3 µM (inactive)	31.3 µM (inactive)	34.9 µM (inactive)
N#CC1(C#N)C2C=CC(C3CCC=C32)C1(C#N)C#N (stereo not given)	> 10 µM (inactive)	> 6.37 µM (inactive)	> 10 µM (inactive)	1.91 µM (inactive)	1.94 µM (inactive)	> 6.56 µM (inactive)	> 10 µM (inactive)	> 10 µM (inactive)	> 8.2 µM (inactive)	> 10 µM (inactive)	2.96 µM (inactive)	> 10 µM (inactive)	> 10 µM (inactive)	> 10 µM (inactive)	> 10 µM (inactive)	> 10 µM (inactive)	> 10 µM (inactive)	1.77 µM (inactive)	> 10 µM (inactive)	> 10 µM (inactive)
O=C(CC(=O)N1N=C(c2ccccc2)C(/N=N/c2ccc(S(=O)(=O)CCOS(=O)(=O)O)cc2)C1=O)Nc1ccc(Cl)cc1 (stereo not given)	> 100 µM (inactive)	9.82 µM (inactive)	> 100 µM (inactive)	49.5 µM (inactive)	> 100 µM (inactive)	85.9 µM (inactive)	> 100 µM (inactive)	21.7 µM (inactive)	> 100 µM (inactive)	> 100 µM (inactive)	30.9 µM (inactive)	> 100 µM (inactive)	> 100 µM (inactive)	> 100 µM (inactive)	> 100 µM (inactive)	> 100 µM (inactive)	> 100 µM (inactive)	> 10 µM (inactive)	> 100 µM (inactive)	> 100 µM (inactive)
Nc1nc(Cl)cc(NCC2(CO)CC=CC2)n1	> 100 µM (inactive)	> 100 µM (inactive)	33.1 µM (inactive)	> 100 µM (inactive)	> 100 µM (inactive)	> 100 µM (inactive)	> 100 µM (inactive)	> 100 µM (inactive)	> 100 µM (inactive)	> 100 µM (inactive)	68.7 µM (inactive)	79.8 µM (inactive)	> 100 µM (inactive)	> 100 µM (inactive)	> 100 µM (inactive)	> 100 µM (inactive)	> 100 µM (inactive)	> 100 µM (inactive)	> 100 µM (inactive)	> 100 µM (inactive)
CCc1oc2ccccc2c1C(=O)c1cc(Br)c(O)c(Br)c1 [BENZBROMARONE]	34.8 µM (inactive)	17.5 µM (inactive)	28.2 µM (inactive)	26.4 µM (inactive)	20.9 µM (inactive)	22.4 µM (inactive)	24.1 µM (inactive)	20.7 µM (inactive)	23.7 µM (inactive)	22.1 µM (inactive)	19.9 µM (inactive)	32.7 µM (inactive)	20 µM (inactive)	17.1 µM (inactive)	37.8 µM (inactive)	36.1 µM (inactive)	18.9 µM (inactive)	35.6 µM (inactive)	17.3 µM (inactive)	16.9 µM (inactive)

From ChEMBL document CHEMBL1201862, “PubChem BioAssay data set” (2004)
